{
  "source": "BigSolDB 2.1",
  "data": [
    {"smiles": "O=C(Nc1ccc(F)cc1F)c1cccnc1Oc1cccc(C(F)(F)F)c1", "values": [
      {"measurement": "solubility (mole fraction)", "setting": "in ethanol, 278.15 K", "result": 0.000246},
      {"measurement": "solubility (mole fraction)", "setting": "in ethanol, 283.15 K", "result": 0.000325},
      {"measurement": "solubility (mole fraction)", "setting": "in ethanol, 288.15 K", "result": 0.000425},
      {"measurement": "solubility (mole fraction)", "setting": "in ethanol, 293.15 K", "result": 0.00055},
      {"measurement": "solubility (mole fraction)", "setting": "in ethanol, 298.15 K", "result": 0.000703},
      {"measurement": "solubility (mole fraction)", "setting": "in ethanol, 303.15 K", "result": 0.000894},
      {"measurement": "solubility (mole fraction)", "setting": "in ethanol, 308.15 K", "result": 0.00113},
      {"measurement": "solubility (mole fraction)", "setting": "in ethanol, 313.15 K", "result": 0.00142},
      {"measurement": "solubility (mole fraction)", "setting": "in ethanol, 318.15 K", "result": 0.00177},
      {"measurement": "solubility (mole fraction)", "setting": "in ethanol, 323.15 K", "result": 0.0022},
      {"measurement": "solubility (mole fraction)", "setting": "in ethyl acetate, 278.15 K", "result": 0.0105},
      {"measurement": "solubility (mole fraction)", "setting": "in ethyl acetate, 283.15 K", "result": 0.0125},
      {"measurement": "solubility (mole fraction)", "setting": "in ethyl acetate, 288.15 K", "result": 0.015},
      {"measurement": "solubility (mole fraction)", "setting": "in ethyl acetate, 293.15 K", "result": 0.0176},
      {"measurement": "solubility (mole fraction)", "setting": "in ethyl acetate, 298.15 K", "result": 0.0206},
      {"measurement": "solubility (mole fraction)", "setting": "in ethyl acetate, 303.15 K", "result": 0.024},
      {"measurement": "solubility (mole fraction)", "setting": "in ethyl acetate, 308.15 K", "result": 0.0281},
      {"measurement": "solubility (mole fraction)", "setting": "in ethyl acetate, 313.15 K", "result": 0.0322},
      {"measurement": "solubility (mole fraction)", "setting": "in ethyl acetate, 318.15 K", "result": 0.0371},
      {"measurement": "solubility (mole fraction)", "setting": "in ethyl acetate, 323.15 K", "result": 0.0429},
      {"measurement": "solubility (mole fraction)", "setting": "in isopropanol, 278.15 K", "result": "4.4e-05"},
      {"measurement": "solubility (mole fraction)", "setting": "in isopropanol, 283.15 K", "result": "7.09e-05"},
      {"measurement": "solubility (mole fraction)", "setting": "in isopropanol, 288.15 K", "result": 0.000114},
      {"measurement": "solubility (mole fraction)", "setting": "in isopropanol, 293.15 K", "result": 0.000186},
      {"measurement": "solubility (mole fraction)", "setting": "in isopropanol, 298.15 K", "result": 0.000292},
      {"measurement": "solubility (mole fraction)", "setting": "in isopropanol, 303.15 K", "result": 0.000456},
      {"measurement": "solubility (mole fraction)", "setting": "in isopropanol, 308.15 K", "result": 0.00069},
      {"measurement": "solubility (mole fraction)", "setting": "in isopropanol, 313.15 K", "result": 0.00104},
      {"measurement": "solubility (mole fraction)", "setting": "in isopropanol, 318.15 K", "result": 0.00158},
      {"measurement": "solubility (mole fraction)", "setting": "in isopropanol, 323.15 K", "result": 0.00232},
      {"measurement": "solubility (mole fraction)", "setting": "in methanol, 278.15 K", "result": 0.000223},
      {"measurement": "solubility (mole fraction)", "setting": "in methanol, 283.15 K", "result": 0.0003},
      {"measurement": "solubility (mole fraction)", "setting": "in methanol, 288.15 K", "result": 0.000385},
      {"measurement": "solubility (mole fraction)", "setting": "in methanol, 293.15 K", "result": 0.000489},
      {"measurement": "solubility (mole fraction)", "setting": "in methanol, 298.15 K", "result": 0.000633},
      {"measurement": "solubility (mole fraction)", "setting": "in methanol, 303.15 K", "result": 0.000799},
      {"measurement": "solubility (mole fraction)", "setting": "in methanol, 308.15 K", "result": 0.000999},
      {"measurement": "solubility (mole fraction)", "setting": "in methanol, 313.15 K", "result": 0.00125},
      {"measurement": "solubility (mole fraction)", "setting": "in methanol, 318.15 K", "result": 0.00155},
      {"measurement": "solubility (mole fraction)", "setting": "in methanol, 323.15 K", "result": 0.00193},
      {"measurement": "solubility (mole fraction)", "setting": "in water, 278.15 K", "result": "1.52e-07"},
      {"measurement": "solubility (mole fraction)", "setting": "in water, 283.15 K", "result": "2e-07"},
      {"measurement": "solubility (mole fraction)", "setting": "in water, 288.15 K", "result": "2.53e-07"},
      {"measurement": "solubility (mole fraction)", "setting": "in water, 293.15 K", "result": "3.15e-07"},
      {"measurement": "solubility (mole fraction)", "setting": "in water, 298.15 K", "result": "3.93e-07"},
      {"measurement": "solubility (mole fraction)", "setting": "in water, 303.15 K", "result": "4.84e-07"},
      {"measurement": "solubility (mole fraction)", "setting": "in water, 308.15 K", "result": "5.94e-07"},
      {"measurement": "solubility (mole fraction)", "setting": "in water, 313.15 K", "result": "7.19e-07"},
      {"measurement": "solubility (mole fraction)", "setting": "in water, 318.15 K", "result": "8.81e-07"},
      {"measurement": "solubility (mole fraction)", "setting": "in water, 323.15 K", "result": "1.07e-06"}
    ]}
  ]
}
